Experimental data from US20060009506A1, “Drugs for the treatment of neoplastic disorders” (Odyssey Thera, Inc., priority 2004, published 2006).

Columns and labels:
U-87 MG cells = test: MTT proliferation assay, glioblastoma U-87 MG; format: cell-based; conditions: Homo sapiens, Tumor Cell: Glioblastoma (U-87 MG), 120 hours, concentrations tested in microM
Description: (§1) We first screened compounds derived from the known pharmacopeia and from a selected natural product collection using two types of assays: (a) measurements of post-translational modifications of proteins; (b) measurements of protein-protein interactions. For the purpose of measuring post-translational modifications of proteins, we used immunofluorescence methods combined with phospho-specific antibodies. For the purpose of quantifying and localizing protein complexes we used fluorescence methods based on protein-fragment complementation assays (PCA). ‘Hits’ from the initial screens were then tested for antiproliferative activity in up to 5 different human tumor cell lines. […] For drugs with antiproliferative activity in PC-3 cells, dose-response curves were generated to determine the EC50 for antiproliferative activity and additional tumor cell lines were tested to determine the breadth of activity. Methods for assay development, validation, screening, and testing of antiproliferative activity are described below.
(§2) Cells were maintained in various media as follows: A549, LoVo and PC-3 (Ham's F12K medium with 2 mM L-glutamine and 1.5 g/L sodium bicarbonate), MIA PaCa-2 (Dulbecco's modified Eagle's medium with 4 mM L-glutamine and 4.5 g/L glucose), U87-MG (MEM+Earle's BSS). Medium for each cell line was supplemented with 10% FBS and […] Penecillin/Streptomycin. All cells were grown in incubators set at 37° C., 5% CO2. Thiazolyl Blue Tetrazolium Bromide (MTT) based proliferation assays were performed to assess the anti-proliferative activities of the compounds on these cells. Cells were seeded in 96 well plates at a density of 750 cells/well 24 hours prior to compound treatment. The cells were incubated with varying concentrations of compounds for 120 hours. […] Drug treatment was performed in 5 replicate wells. Background absorbance was established by wells containing medium but no cells. Vehicle (DMSO) only was used as control. MTT (Sigma-Aldrich, St. Louis, Mo.) was added to each well at a final concentration of 0.5 mg/ml. Following a 2 hour incubation at 37° C., medium in the wells was replaced with 0.15 ml DMSO. The plates were agitated for 15 min using a microtiter plate shaker.

PC-3 cells = test: MTT proliferation assay, prostate adenocarcinoma PC-3; format: cell-based, Human; conditions: for IC50: Homo sapiens, Tumor Cell: Prostate (PC-3), MTT, 120 hours, concentrations tested in microM
Description: as §1, §2

A549 cells = test: MTT proliferation assay, non-small cell lung carcinoma A549; format: cell-based, Human; conditions: Homo sapiens, Tumor Cell: NSCLC (A549), concentrations tested in microM
Description: as §1, §2

cancer cells = test: Antiproliferative activity against cancer cells (cell line not stated); format: cell-based, human; conditions: general statement
Description: as §1
Cells were maintained in various media as follows: A549, LoVo and PC-3 (Ham's F12K medium with 2 mM L-glutamine and 1.5 g/L sodium bicarbonate), MIA PaCa-2 (Dulbecco's modified Eagle's medium with 4 mM L-glutamine and 4.5 g/L glucose), U87-MG (MEM+Earle's BSS). Medium for each cell line was supplemented with 10% FBS and […] Penecillin/Streptomycin. All cells were grown in incubators set at 37° C., 5% CO2. Thiazolyl Blue Tetrazolium Bromide (MTT) based proliferation assays were performed to assess the anti-proliferative activities of the compounds on these cells. Cells were seeded in 96 well plates at a density of 750 cells/well 24 hours prior to compound treatment. The cells were incubated with varying concentrations of compounds for 120 hours. Compound concentrations range from 0.03 to 100 microM (half log increments) except for alpha-Tomatine (0.001-100 microM, half log increments), Neriifolin (0.0002-100 microM) and Peruvoside (0.01-100 microM). Drug treatment was performed in 5 replicate wells. Background absorbance was established by wells containing medium but no cells. Vehicle (DMSO) only was used as control. MTT (Sigma-Aldrich, St. Louis, Mo.) was added to each well at a final concentration of 0.5 mg/ml. Following a 2 hour incubation at 37° C., medium in the wells was replaced with 0.15 ml DMSO. The plates were agitated for 15 min using a microtiter plate shaker. […] Mean absorbance values were calculated from 5 replicate wells of each drug treatment following subtraction of background absorbance from blank samples and plotted as a percentage of control.

LoVo cells = test: MTT proliferation assay, colon adenocarcinoma LoVo; format: cell-based; conditions: Homo sapiens, Tumor Cell: Colon (LoVo), 120 hours, concentrations tested in microM
Description: as §1, §2

MIA PaCa-2 cells = test: MTT proliferation assay, pancreatic carcinoma MIA PaCa-2; format: cell-based; conditions: Homo sapiens, Tumor Cell: Pancreatic (MIA PaCa-2), concentrations tested in microM
Description: as §1, §2

cancer pathways = test: Screening of cancer pathways in human cells (PCA and phospho-immunofluorescence); format: cell-based; conditions: cancer pathway in which the drug was active; screened at 10 micromolar, HEK293 cells
Description: as §1
Immunofluorescence was performed on drug-treated cells using antibodies that specifically recognize phosphorylated forms of key signaling proteins. HEK293T cells were seeded in black-walled, poly-lysine coated 96-well plates (Greiner) at a density of 30,000/well. After 24 hours, cells in duplicate wells were treated with drugs. 100 ng/ml hEGF added to the cells during the last 5 min of drug treatment. The cells were rinsed once with PBS and fixed with 4% formaldehyde for 10 min. The cells were subsequently permeabilized with 0.25% Triton X-100 in PBS and incubated with 3% BSA for 30 min to block non-specific antibody binding. Each of the 4 sets of identically treated cells were then incubated with rabbit antibodies against phosphorylated CREB (Ser133), hsp27 (Ser82), pERK (T202/Y204) (Cell Signaling), or BSA in PBS. The cells were rinsed with PBS and incubated with Alexa488 conjugated goat anti-rabbit secondary antibody (Molecular Probes). Cell nuclei were stained with Hoechst33342 (Molecular Probes). Images were acquired using Discovery-1 High Content Imaging System (Molecular Devices). Background fluorescence due to nonspecific binding by the secondary antibody was established with the use of cells that were incubated with BSA/PBS and without primary antibodies. Fluorescence intensities were quantitated using Image J-based image analysis algorithm as described below.
Reporter fragments for PCA were generated by oligonucleotide synthesis (Blue Heron Biotechnology, Bothell, Wash.). First, oligonucleotides coding for polypeptide fragments YFP[1]and YFP[2] […] Next, PCR mutagenesis was used to generate the mutant fragments IFP[1] and IFP[2]. The IFP[1] fragment corresponds to YFP[1]-(F46L, F64L, M153T) and the IFP[2] fragment corresponds to YFP[2]-(V163A, S175G). […] The YFP[1], YFP[2], IFP[1] and IFP[2] fragments were amplified by PCR to incorporate restriction sites and a linker sequence, described below, in configurations that would allow fusion of a gene of interest to either the 5′- or 3′-end of each reporter fragment. The reporter-linker fragment cassettes were subcloned into a mammalian expression vector (pcDNA3.1Z, Invitrogen) that had been modified to incorporate the replication origin (oriP) of the Epstein Barr virus (EBV). […] Additionally, these vectors still retain the SV40 origin, allowing for episomal expression in cell lines expressing the SV40 large T antigen (e.g. HEK293T, Jurkat or COS). […] PCA fusion constructs were prepared for a large number of proteins known to participate in cellular pathways (Table 1 and Table 2). The full coding sequence for each gene of interest was amplified by PCR from a sequence-verified full-length cDNA.

Row | SMILES | IC50 (U-87 MG cells) [nM] | IC50 (PC-3 cells) [nM] | IC50 (A549 cells; A549, 120 h) [nM] | Antiproliferative activity against cancer cells (cancer cells) | IC50 (LoVo cells) [nM] | IC50 (MIA PaCa-2 cells; MIA PaCa-2, 120 h) [nM] | Pathway Activity (cancer pathways) | IC50 (A549 cells; 120 hours) [nM] | IC50 (MIA PaCa-2 cells; 120 hours) [nM] | Antiproliferative activity in the PC-3 assay (PC-3 cells; FIG. 1, compared to DMSO control)
1 | O=C(Nc1ccc([N+](=O)[O-])cc1Cl)c1cc(Cl)ccc1O [Niclosamide] | 810 | 1330 | 660 | substantial antiproliferative activity | 450 | 590 | apoptosis |  |  | 
2 | COC(=O)[C@H]1[C@H]2C[C@H]3c4[nH]c5cc(OC)ccc5c4CCN3C[C@H]2C[C@@H](OC(=O)c2cc(OC)c(OC)c(OC)c2)[C@@H]1OC [Isoreserpine] | 9020 | 11700 | 3950 | substantial antiproliferative activity | 2730 | 3920 | apoptosis |  |  | 
3 | CC1(C)CCC2=C(O1)c1ccccc1C(=O)C2=O [beta-Lapachone] | 860 | 630 | 230 | substantial antiproliferative activity | 1400 | 770 | apoptosis |  |  | 
4 | C[C@H]1CC[C@]2(NC1)O[C@H]1C[C@H]3[C@@H]4CC[C@H]5C[C@@H](O[C@@H]6O[C@H](CO)[C@H](O[C@@H]7O[C@H](CO)[C@@H](O)[C@H](O[C@@H]8OC[C@@H](O)[C@H](O)[C@H]8O)[C@H]7O[C@@H]7O[C@H](CO)[C@@H](O)[C@H](O)[C@H]7O)[C@H](O)[C@H]6O)CC[C@]5(C)[C@H]4CC[C@]3(C)[C@H]1[C@@H]2C [Tomatine] |  |  |  | substantial antiproliferative activity |  |  | invasion/metastasis | 60 | 100 | 
5 | CC(C)(C)c1ccc(C(O)CCCN2CCC(C(O)(c3ccccc3)c3ccccc3)CC2)cc1 (stereo not shown) [Terfenadine] | 380 | 1320 | 550 | substantial antiproliferative activity | 990 | 350 | invasion/metastasis |  |  | 
6 | COc1c2ccoc2cc2oc(=O)ccc12 [Bergaptene] |  |  | 56400 | substantial antiproliferative activity |  | 58300 | proliferation; invasion/ |  |  | 
7 | CC(C)c1c(C(=O)Nc2ccccc2)c(-c2ccccc2)c(-c2ccc(F)cc2)n1CC[C@@H](O)C[C@@H](O)CC(=O)O [Atorvastatin] | 4600 |  |  | substantial antiproliferative activity |  |  | invasion/metastasis |  |  | 
8 | Cc1cccc(Nc2cc(Cl)nc(SCC(=O)O)n2)c1C [WY-14643] |  |  |  |  |  |  |  |  |  | inactive
